Read-outs that look alike come from different tables or passages of the source.
How the values were obtained:
[1] = system: 16HBE cells (human epithelial cells of bronchial origin); assay: Cell viability test (MTT reduction);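 further: formazan absorbance at 570 nm after MTT reduction, corrected for cell-free blank wells, reported relative to untreated cells, from duplicate wells over three independent repeats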
Method: The cytotoxic potential of the compounds was evaluated on cell cultures in vitro. […] The results are reported in the table as viability (%) compared to untreated cells (Table 4).
To evaluate the cytotoxic potential of the compounds under examination, the MTT (3-(4,5-dimethylthiazol-2-yl)-2,5-diphenyltetrazolium) reduction test, commonly used to monitor cell viability was used following the exposure to potentially cytotoxic agents. The essay is based on the reduction of MTT to formazan, a compound that assumes a blue colour which can be evaluated by spectrophotometric reading at a wavelength of 570 nm. For the essay we used the 16HBE cell line. […] Each test was performed in duplicate and three independent replicas were made.
Cell viability was calculated as follows:
COD570=OD570 of sample−OD570 of wells without cells (white)
Viability=100−reduction (%)
where: NT indicates the samples of cells non-threated with the compounds; T the samples of cells treated with the compounds at the different concentrations.
The mean cell viability values were calculated using the Excel mean and standard deviation functions.

[2] = system: P. aeruginosa PA14 col^R 5 (colistin-resistant strain); assay: microbe, parasite or virus in culture; type: cell-based; settings: for IC90: read-out: IC90, synergy with colistin (8 μg/ml)
Method: The compounds identified by in silico screening were tested for their antibacterial activity (in the absence of colistin) and for their synergistic or adjuvant activity with colistin against a colistin-resistant strain of P. aeruginosa grown in the absence or presence of a sub-inhibitory concentration of colistin (8 μg/ml).
This strain over-expresses the am genes responsible for the modification of lipopolysaccharide by the addition of L-amino-arabinose.
The strain was grown in Mueller-Hinton (MH) medium for 8 hours, and inoculated at a cell density of ˜10^6/ml in MH medium supplemented or not with colistin at a concentration of 16 μg/ml. […] The microtitration plates were incubated at 37° C. without stirring for 24 hours. Bacterial growth was assessed by measuring absorbance at 600 nm (A600) in a microplate reader (Victor 2^V, Perkin-Elmer). […] For each compound three independent experiments were conducted, and the averages of the values obtained in the three experiments are considered to determine the values of IC50 e IC90.

[3] = system: colistin-resistant clinical strains of Klebsiella pneumoniae; assay: MIC of colistin in presence of BBN149 or DMSO, K. pneumoniae clinical strains; type: cell-based; settings: for MIC of colistin with 0.6% DMSO as a control: colistin without BBN149
Method: (§1) All the colistin-resistant strains used depend on the aminoarabinosylation of lipid A as a mechanism of resistance to colistin (Lo Sciuto e Imperi, 2018; Esposito et al., 2018). […] MIC essays were performed in 96-well microtitration plates, using previously characterized P. aeruginosa and K. pneumoniae strains (Lo Sciuto e Imperi, 2018; Esposito et al., 2018). […] At least three independent experiments were conducted for each strain.

[4] = system: P. aeruginosa PA14 col^R 5 (colistin-resistant strain); assay: Checkerboard assay compound/colistin; type: cell-based
Method: The checkerboard essays were performed in microtiter plates with 96 wells, aliquoting in each column of wells 50 μl of MH medium containing decreasing concentrations of colistin (dilutions in reason of 2 from 384 to 1.5 μg/ml) or without colistin, and in each row of wells further 50 μl of MH medium containing decreasing concentrations of compound of interest (dilutions in reason 2 from […]) or without compound. Finally, 50 μl of the inoculum of the PA14 col^R 5 strain were added to each well at a concentration of ˜1.5×10^6 cells/ml in MH medium, so as to reach a final volume of 150 μl, a bacteria concentration equal to […], colistin concentrations in the range 0-128 μg/ml and concentrations of compounds of interest in the range 0-125 μM. Plates were incubated at 37° C. without shaking for 24 hours, and bacterial growth was assessed by measuring the A600 in a microplate reader (Victor 2^V, Perkin-Elmer). Three independent experiments were conducted for each compound, and the averages of the values obtained in the three experiments were considered to determine the IC90 values.

[5] = system: P. aeruginosa strains resistant and sensitive to colistin; assay: MIC of colistin in presence of BBN149 or DMSO, P. aeruginosa strains; type: cell-based; settings: for MIC of colistin with 0.6% DMSO as a control: colistin without BBN149
Method: as §1

[6] = 16HBE, 1.95 μM, 18 hours, MTT, vs untreated cells
[7] = 16HBE, 3.91 μM, 18 hours, MTT, vs untreated cells
[8] = 16HBE, 7.81 μM, 18 hours, MTT, vs untreated cells
[9] = 16HBE, 15.63 μM, 18 hours, MTT, vs untreated cells
[10] = 16HBE, 62.5 μM, 18 hours, MTT, vs untreated cells
[11] = 16HBE, 125 μM, 18 hours, MTT, vs untreated cells
[12] = 16HBE, 250 μM, 18 hours, MTT, vs untreated cells
[13] = Pseudomonas aeruginosa, PA14, 24 h, read-out: IC50 without colistin
[14] = compound ≥31 μM, MIC 64 to 8 μg/ml, PA14 col^R 5
[15] = 16HBE, 31.25 μM, 18 hours, MTT, vs untreated cells

Molecule: C[C@]12C=C[C@@]3(CC[C@@H]4[C@@](C)(COC(=O)C(=O)O)CCC[C@@]4(C)[C@@H]3CC1)C2 [BBN149, ent-beyer-15-en-18-O-oxalic acid]
- Average percentage of cell viability (±standard deviation) [1]: 86.07 ± 5.30%
- Average percentage of cell viability (±standard deviation) [1, 6]: 94.15 ± 6.34%
- Average percentage of cell viability (±standard deviation) [1, 7]: 90.17 ± 7.35%
- Average percentage of cell viability (±standard deviation) [1, 8]: 86.13 ± 2.37%
- Average percentage of cell viability (±standard deviation) [1, 9]: 90.80 ± 6.31%
- Average percentage of cell viability (±standard deviation) [1, 10]: 76.33 ± 2.65%
- Average percentage of cell viability (±standard deviation) [1, 11]: 71.99 ± 5.18%
- Average percentage of cell viability (±standard deviation) [1, 12]: 65.51 ± 4.05%
- IC50 ([2]; Pseudomonas aeruginosa, PA14, 24 h, read-out: IC50, synergy with colistin (8 μg/ml)): 15.6 µM
- IC50 [2, 13]: > 250 µM
- IC90 ([2]; Pseudomonas aeruginosa, PA14, 24 h): 31.2 µM
- inhibition of bacterial growth in the presence of colistin ([2]; colistin 8 μg/ml): able to inhibit bacterial growth in the presence of colistin
- antibacterial activity per se ([2]; in the absence of colistin): none of the compounds showed antibacterial activity per se
- MIC of colistin in the presence of 60 μM BBN149 ([3]; strain KP-Mo-3): 16 µg/mL
- MIC of colistin in the presence of 60 μM BBN149 ([3]; strain KP-Mo-5): 8 µg/mL
- MIC of colistin in the presence of 60 μM BBN149 ([3]; strain KP-Mo-6): 4 µg/mL
- MIC of colistin in the presence of 60 μM BBN149 ([3]; strain KP-Mo-11): 8 µg/mL
- MIC of colistin in the presence of 60 μM BBN149 ([3]; strain KP-Mo-16): 8 µg/mL
- reduction of MIC of colistin (times) [4]: 4 times
- concentration of compound reducing MIC of colistin by 4 times ([4]; MIC of colistin 64 to 16 μg/ml, PA14 col^R 5): ≥ 16 µM
- reduction of MIC of colistin (times) [4, 14]: 8 times
- activity on colistin-sensitive strains ([5]; 60 μM BBN149, colistin-sensitive P. aeruginosa strains): no relevant activity
- MIC of colistin in the presence of 60 μM BBN149 ([5]; strain KK1): 1 µg/mL
- MIC of colistin in the presence of 60 μM BBN149 ([5]; strain KK1 col^R 1): 8 µg/mL
- MIC of colistin in the presence of 60 μM BBN149 ([5]; strain KK27): 1 µg/mL
- MIC of colistin in the presence of 60 μM BBN149 ([5]; strain KK27 col^R 6): 4 µg/mL
- MIC of colistin in the presence of 60 μM BBN149 ([5]; strain PA14): 1 µg/mL
- MIC of colistin in the presence of 60 μM BBN149 ([5]; strain PA14 col^R 5): 8 µg/mL
- MIC of colistin in the presence of 60 μM BBN149 ([5]; strain TR1): 1 µg/mL
- MIC of colistin in the presence of 60 μM BBN149 ([5]; strain TR1 col^R 6): 4 µg/mL

Molecule: C[C@@]12CCC3[C@@](CCC4[C@@](C)(COC(=O)C(=O)O)CCC[C@]43C)(CC1)C2 (stereo partly drawn) [FDO-H, ent-beyeran-18-O-oxalic acid]
- Average percentage of cell viability (±standard deviation) [1, 6]: 106.31 ± 17.23%
- Average percentage of cell viability (±standard deviation) [1, 7]: 94.57 ± 12.67%
- Average percentage of cell viability (±standard deviation) [1, 8]: 100.25 ± 23.84%
- Average percentage of cell viability (±standard deviation) [1, 9]: 94.06 ± 3.88%
- Average percentage of cell viability (±standard deviation) [1, 15]: 93.65 ± 11.27%
- Average percentage of cell viability (±standard deviation) [1, 10]: 97.14 ± 12.19%
- Average percentage of cell viability (±standard deviation) [1, 11]: 98.42 ± 16.71%
- Average percentage of cell viability (±standard deviation) [1, 12]: 76.51 ± 12.64%
- IC50 [2, 13]: < 250 µM
- IC50 ([2]; read-out: IC50, synergy with colistin (8 μg/ml), PA14 ColR5, colistin 8 μg/ml (sub-inhibitory), minimum concentration causing at least 50% growth inhibition, 24 h): 7.81 µM
- concentration of compound reducing MIC of colistin by 4 times [4]: ≥ 4 µM
- reduction of MIC of colistin (times) ([4]; compound ≥4 μM, PA14 col^R 5): 4 times
- reduction of MIC of colistin (times) [4, 14]: 8 times

Molecule: C[C@@]12CCC3[C@@](CCC4[C@@]3(C)CCC[C@@]4(C)C(=O)OC3OC(CO)C(O)C(O)C3O)(CC1)C2 (stereo partly drawn) [SR4, glucopyranosyl β-D ester of ent-beyeran-19-oic acid]
- Average percentage of cell viability (±standard deviation) [1, 6]: 96.35 ± 9.42%
- Average percentage of cell viability (±standard deviation) [1, 7]: 92.31 ± 3.26%
- Average percentage of cell viability (±standard deviation) [1, 8]: 92.44 ± 2.11%
- Average percentage of cell viability (±standard deviation) [1, 9]: 97.27 ± 5.61%
- Average percentage of cell viability (±standard deviation) [1, 15]: 101.69 ± 4.39%
- Average percentage of cell viability (±standard deviation) [1, 10]: 99.27 ± 2.43%
- Average percentage of cell viability (±standard deviation) [1, 11]: 106.23 ± 5.52%
- Average percentage of cell viability (±standard deviation) [1, 12]: −1.11 ± 2.02%
- reduction in cell viability ([1]; 16HBE, highest concentration (250 μM), 18 hours): total reduction of cell viability
- IC50 [2, 13]: > 250 µM
- IC90 ([2]; PA14 ColR5, colistin 8 μg/ml (sub-inhibitory), minimum concentration causing at least 90% growth inhibition, 24 h): > 250 µM
- concentration of compound reducing MIC of colistin by 4 times [4]: 125 µM
- reduction of MIC of colistin (times) ([4]; compound 125 μM only, PA14 col^R 5): 4 times
- melting point: 160 °C

Molecule: colistin [reference compound]
- MIC of colistin with 0.6% DMSO as a control ([3]; strain KP-Mo-3): 128 µg/mL
- MIC of colistin with 0.6% DMSO as a control ([3]; strain KP-Mo-5): 128 µg/mL
- MIC of colistin with 0.6% DMSO as a control ([3]; strain KP-Mo-6): 32 µg/mL
- MIC of colistin with 0.6% DMSO as a control ([3]; strain KP-Mo-11): 64 µg/mL
- MIC of colistin with 0.6% DMSO as a control ([3]; strain KP-Mo-16): 64 µg/mL
- MIC of colistin with 0.6% DMSO as a control ([5]; strain KK1): 0.5 µg/mL
- MIC of colistin with 0.6% DMSO as a control ([5]; strain KK1 col^R 1): 128 µg/mL
- MIC of colistin with 0.6% DMSO as a control ([5]; strain KK27): 0.5 µg/mL
- MIC of colistin with 0.6% DMSO as a control ([5]; strain KK27 col^R 6): 64 µg/mL
- MIC of colistin with 0.6% DMSO as a control ([5]; strain PA14): 0.5 µg/mL
- MIC of colistin with 0.6% DMSO as a control ([5]; strain PA14 col^R 5): 64 µg/mL
- MIC of colistin with 0.6% DMSO as a control ([5]; strain TR1): 0.5 µg/mL
- MIC of colistin with 0.6% DMSO as a control ([5]; strain TR1 col^R 6): 16 µg/mL
